Results on 18 compounds are retold here after patent US20160194358A1, “LINEAR PEPTIDE ANTIBIOTCS” (priority 2013, published 2016).

Assay [1] has as its system Escherichia coli strain MC4100 IMP-4213, which harbors an LptD mutation. The following applies: E. coli MC4100 IMP-4213; 35° C., 22 hours. Here is the method: (§1) In vitro antimicrobial activity of each compound was determined by measuring minimal inhibitor concentrations (MICs) using the broth micro-dilution technique as approved by the Clinical and Laboratory Standards Institute (CLSI). Antibacterial activity was measure against two strains of bacteria: 1) methicillin resistant Staphylococcus aureus (MRSA) strain USA300 (NRS384) and 2) Escherichia coli strain MC4100 IMP-4213, which harbors an LptD mutation. Bacterial inocula were prepared by scraping cells into 1 mL of testing media (cation adjusted Mueller Hinton Broth supplemented with 0.002% v/v Tween-80) and diluting to a final OD600nm of 0.01.
(§2) Test compounds were prepared in DMSO at a concentration of 10 mg/ml. These compound stocks were diluted into testing media at a concentration of 64 μg/ml and 9 serial 1:2 dilutions were made in the same media, in 96-well U bottom microtiter dishes. Bacterial inocula were added to the two fold serial dilutions of test compounds to a final density of OD OD600nm of 0.0005 and incubated stationarily at 35° C. for 22 hours, after which the plates were examined visually.

Assay [2] relates to methicillin resistant Staphylococcus aureus (MRSA) strain USA300 (NRS384). Here is the method:
as §1, §2

The mark [3] stands for this setting: MRSA USA300 (NRS384), 35° C., 22 hours.

≈ marks a conversion by molar mass, not a printed value. Like-named read-outs stand apart in the source and are kept apart here. *1 amine or outer side, *2 acyl side, *3 side chain or, on linkers, in order; H or OH if unused. Where a SMILES comes first, the peptide text is derived from it. [ ]: non-standard residue; d: D form. The star is where a group is joined. boroAla((+)-pinanediol) = C[C@H](N*)B1O[C@@H]2C[C@@H]3C[C@@H](C3(C)C)[C@]2(C)O1; Benzoyl(4-(4-Cl-Ph)) = O=C(c1ccc(-c2ccc(Cl)cc2)cc1)*; X27 = CCCCCCCCN1CCN([*:1])C(C(=O)[*:2])C1; X32 = CCCCCCN1CCN([*:1])C(C(=O)[*:2])C1; X30 = CCCCc1ccc(-c2ncc(C(=O)*)cn2)cc1; X33 = CC(C)(O)C#CC#Cc1ccc(C(=O)*)cc1; X35 = O=C(c1cnc(-c2ccc(Cl)cc2)nc1)*; X25 = C[C@H](N*)C(=O)c1ncc(C#N)o1; X26 = CCCCCCCCc1ccc(C(=O)*)c(C)c1; X36 = CC(C)C#CC#Cc1ccc(C(=O)*)cc1; Myristoyl = CCCCCCCCCCCCCC(=O)*; X23 = O=C(c1ccc(C#CC#CCCO)cc1)*; X28 = C[C@H](N*)C(=O)c1ncccn1; Dab = NCC[C@H](N)C(=O)O; Dap = NC[C@H](N)C(=O)O

`C[C@H](NC(=O)[C@H](CCCCN)NC(=O)[C@H](C)NC(=O)[C@@H](NC(=O)[C@H](CCN)NC(=O)c1cnc(-c2ccc(Cl)cc2)nc1)[C@@H](C)O)B1O[C@@H]2C[C@@H]3C[C@@H](C3(C)C)[C@]2(C)O1` [Compound 261] (X35-[Dab]TAK-{boroAla((+)-pinanediol)}): the “MIC (μg/mL) E. coli” value in assay [1] is 4 µg/mL (≈ 4.76 µM). For the same compound, in assay [2] (setting [3]), the “MIC (μg/mL) S. aureus” value was 1.7 µg/mL (≈ 2.02 µM).
In the same order, the values of `CC(C)C#CC#Cc1ccc(C(=O)N[C@@H](CCN)C(=O)N[C@H](C(=O)N[C@@H](C)C(=O)N[C@@H](CCCCN)C(=O)N[C@@H](C)B2O[C@@H]3C[C@@H]4C[C@@H](C4(C)C)[C@]3(C)O2)[C@@H](C)O)cc1` [Compound 263] (X36-[Dab]TAK-{boroAla((+)-pinanediol)}) are 0.25 µg/mL (≈ 0.306 µM) and 0.71 µg/mL (≈ 0.868 µM).
For `C[C@H](NC(=O)[C@H](CCCCN)NC(=O)[C@H](C)NC(=O)[C@@H](NC(=O)[C@H](CCN)NC(=O)c1ccc(C#CC#CC(C)(C)O)cc1)[C@@H](C)O)B1O[C@@H]2C[C@@H]3C[C@@H](C3(C)C)[C@]2(C)O1` [Compound 264] (X33-[Dab]TAK-{boroAla((+)-pinanediol)}) the same measures were 4 µg/mL (≈ 4.8 µM) and 8 µg/mL (≈ 9.59 µM).
Consider `C[C@H](NC(=O)[C@H](CCCCN)NC(=O)[C@H](C)NC(=O)[C@@H](NC(=O)[C@H](CCN)NC(=O)c1ccc(C#CC#CCCO)cc1)[C@@H](C)O)B1O[C@@H]2C[C@@H]3C[C@@H](C3(C)C)[C@]2(C)O1` [Compound 265] (X23-[Dab]TAK-{boroAla((+)-pinanediol)}), for which the “MIC (μg/mL) E. coli” value in assay [1] is 16 µg/mL (≈ 19.5 µM). In addition, the “MIC (μg/mL) S. aureus” value in assay [2] (setting [3]) was found to be 16 µg/mL (≈ 19.5 µM).
With `C[C@H](NC(=O)[C@@H](NC(=O)[C@H](CN)NC(=O)c1ccc(-c2ccc(Cl)cc2)cc1)[C@@H](C)O)C(=O)N[C@@H](CCCCN)C(=O)N[C@@H](C)C(=O)c1ncc(C#N)o1` [Compound 266] ({Benzoyl(4-(4-Cl-Ph))}-[Dap]TAK-X25), the “MIC (μg/mL) E. coli” value in assay [1] amounted to 16 µg/mL (≈ 20.9 µM). The “MIC (μg/mL) S. aureus” value in assay [2] (setting [3]) is 23 µg/mL (≈ 30 µM).
As to `C[C@H](NC(=O)[C@@H](NC(=O)[C@H](CN)NC(=O)c1ccc(-c2ccc(Cl)cc2)cc1)[C@@H](C)O)C(=O)N[C@@H](CCCCN)C(=O)N[C@@H](C)C(=O)c1ncccn1` [Compound 267] ({Benzoyl(4-(4-Cl-Ph))}-[Dap]TAK-X28), the “MIC (μg/mL) E. coli” value in assay [1] was 32 µg/mL (≈ 42.5 µM). The “MIC (μg/mL) S. aureus” value in assay [2] (setting [3]) came out at 11 µg/mL (≈ 14.6 µM).
As to `CCCCCCCCCCNCCC(=O)N[C@@H](CCCCN)C(=O)N[C@@H](C)C(=O)N[C@@H](CCCCN)C(=O)N[C@@H](C)B1O[C@@H]2C[C@@H]3C[C@@H](C3(C)C)[C@]2(C)O1` [Compound 268], in assay [1], the “MIC (μg/mL) E. coli” value amounted to 8 µg/mL (≈ 10.5 µM). Also, the “MIC (μg/mL) S. aureus” value in assay [2] (USA300, 22 h) was found to be 0.5 µg/mL (≈ 0.656 µM).
As to `CCCCCCCCCCNCCC(=O)N[C@@H](CCCCN)C(=O)N[C@@H](C)C(=O)N[C@@H](CCCCN)C(=O)N[C@@H](C)B(O)O` [Compound 269], the “MIC (μg/mL) E. coli” value in assay [1] is 11 µg/mL (≈ 17.5 µM). Further, the “MIC (μg/mL) S. aureus” value in assay [2] (setting [3]) amounted to 0.35 µg/mL (≈ 0.558 µM).
On to `CCCCc1ccc(-c2ncc(C(=O)N[C@@H](CCN)C(=O)N[C@H](C(=O)N[C@@H](C)C(=O)N[C@@H](CCCCN)C(=O)N[C@@H](C)B3O[C@@H]4C[C@@H]5C[C@@H](C5(C)C)[C@]4(C)O3)[C@@H](C)O)cn2)cc1` [Compound 270] (X30-[Dab]TAK-{boroAla((+)-pinanediol)}), for which, in assay [1], the “MIC (μg/mL) E. coli” value worked out at 0.25 µg/mL (≈ 0.29 µM). In addition, the “MIC (μg/mL) S. aureus” value in assay [2] (setting [3]) turned out to be 0.25 µg/mL (≈ 0.29 µM).
As to `CCCCc1ccc(-c2ncc(C(=O)N[C@@H](CCN)C(=O)N[C@@H](CCCCN)C(=O)N[C@@H](C)C(=O)N[C@@H](CCCCN)C(=O)N[C@@H](C)B3O[C@@H]4C[C@@H]5C[C@@H](C5(C)C)[C@]4(C)O3)cn2)cc1` [Compound 271] (X30-[Dab]KAK-{boroAla((+)-pinanediol)}), the “MIC (μg/mL) E. coli” value in assay [1] was determined as 0.13 µg/mL (≈ 0.146 µM). Besides, the “MIC (μg/mL) S. aureus” value in assay [2] (setting [3]) came out at 0.25 µg/mL (≈ 0.281 µM).
In the same order, the values of `CCCCCCCCCCCCCC(=O)N[C@@H](CCN)C(=O)N[C@H](C(=O)N[C@@H](C)C(=O)N[C@@H](CCCCN)C(=O)N[C@@H](C)B1O[C@@H]2C[C@@H]3C[C@@H](C3(C)C)[C@]2(C)O1)[C@@H](C)O` [Compound 272] (Myristoyl-[Dab]TAK-{boroAla((+)-pinanediol)}) are 0.13 µg/mL (≈ 0.156 µM) and 0.13 µg/mL (≈ 0.156 µM).
Regarding `CCCCCCCCc1ccc(C(=O)N[C@@H](CCN)C(=O)N[C@H](C(=O)N[C@@H](C)C(=O)N[C@@H](CCCCN)C(=O)N[C@@H](C)B2O[C@@H]3C[C@@H]4C[C@@H](C4(C)C)[C@]3(C)O2)[C@@H](C)O)c(C)c1` [Compound 273] (X26-[Dab]TAK-{boroAla((+)-pinanediol)}), the “MIC (μg/mL) E. coli” value in assay [1] worked out at 0.13 µg/mL (≈ 0.152 µM). In assay [2] (setting [3]), the “MIC (μg/mL) S. aureus” value turned out to be 0.13 µg/mL (≈ 0.152 µM).
As to `CCCCCCCCc1ccc(C(=O)N[C@@H](CCCCN)C(=O)N[C@H](C(=O)N[C@@H](C)C(=O)N[C@@H](CCCCN)C(=O)N[C@@H](C)B2O[C@@H]3C[C@@H]4C[C@@H](C4(C)C)[C@]3(C)O2)[C@@H](C)O)c(C)c1` [Compound 274] (X26-KTAK-{boroAla((+)-pinanediol)}), in assay [1], the “MIC (μg/mL) E. coli” value amounted to 0.5 µg/mL (≈ 0.567 µM). The “MIC (μg/mL) S. aureus” value in assay [2] (setting [3]) came to 0.13 µg/mL (≈ 0.147 µM).
For `CCCCc1ccc(-c2ccc(C(N[C@@H](CCCCN)C(=O)N[C@H](C(=O)N[C@@H](C)C(=O)N[C@@H](CC(C)C)C(=O)N[C@@H](C)B3O[C@@H]4C[C@@H]5C[C@@H](C5(C)C)[C@]4(C)O3)[C@@H](C)O)C(F)(F)F)cc2)cc1` (stereo partly drawn) [Compound 277] the same measures were 4 µg/mL (≈ 4.32 µM) and 1.4 µg/mL (≈ 1.51 µM).
In the same order, the values of `CCCCCCCCN1CCNC(C(=O)N[C@@H](CCCCN)C(=O)N[C@H](C(=O)N[C@@H](C)C(=O)N[C@@H](CCCCN)C(=O)N[C@@H](C)B2O[C@@H]3C[C@@H]4C[C@@H](C4(C)C)[C@]3(C)O2)[C@@H](C)O)C1` (stereo partly drawn) [Compound 279] (H-[X27]KTAK-{boroAla((+)-pinanediol)}) are more than 64 µg/mL and 10 µg/mL (≈ 11.4 µM).
For the compound `CCCCCCN1CCNC(C(=O)N[C@@H](CCCCN)C(=O)N[C@H](C(=O)N[C@@H](C)C(=O)N[C@@H](CCCCN)C(=O)N[C@@H](C)B2O[C@@H]3C[C@@H]4C[C@@H](C4(C)C)[C@]3(C)O2)[C@@H](C)O)C1` (stereo partly drawn) [Compound 280] (H-[X32]KTAK-{boroAla((+)-pinanediol)}), the “MIC (μg/mL) E. coli” value in assay [1] is more than 64 µg/mL. For the same compound, the “MIC (μg/mL) S. aureus” value in assay [2] (setting [3]) was found to be 64 µg/mL (≈ 75.5 µM).
In the same order, the values of `C[C@H](NC(=O)[C@H](CCCCN)NC(=O)[C@H](C)NC(=O)[C@@H](NC(=O)C(NC(=O)c1ccc(-c2ccc(Cl)cc2)cc1)C1CNC1)[C@@H](C)O)B1O[C@@H]2C[C@@H]3C[C@@H](C3(C)C)[C@]2(C)O1` (stereo partly drawn) [Compound 281] are 8 µg/mL (≈ 9.41 µM) and 4 µg/mL (≈ 4.7 µM).
For `C[C@H](NC(=O)[C@H](CCCCN)NC(=O)[C@H](C)NC(=O)[C@@H](NC(=O)C(NC(=O)c1ccc(-c2ccc(Cl)cc2)cc1)C1CNC1)[C@@H](C)O)B1O[C@@H]2C[C@@H]3C[C@@H](C3(C)C)[C@]2(C)O1` (stereo partly drawn) [Compound 282] the same measures were 16 µg/mL (≈ 18.8 µM) and 8 µg/mL (≈ 9.41 µM).
